Assay results: patent US5576310A, “11-benzaldoxime-17β-methoxy-17α-methoxymethyl-estrasdiene derivatives, methods for their production and pharmaceuticals containing such compounds” (Jenapharm GmbH, priority 1994, dated 1996)

Key:
[1] = system: early gravidity in the rat; experiment: Inhibition of early gravidity (early abortive effect) in the rat after subcutaneous application from the 5th to 7th day of pregnancy; type: in vivo; conditions: for complete gravidity inhibition (N*/N) / complete gravidity inhibition (%) / ED 50 (complete gravidity inhibition): d5-d7; for complete gravidity inhibition (N*/N): N* females not pregnant / N inseminated females; for complete gravidity inhibition (N*/N) / complete gravidity inhibition (%): empty uteri; for ED 50 (complete gravidity inhibition): s.c., graphic determination
Protocol: Early abortive effect of RU 486 and J 914 (Example 1) and
J 900 (Example 2) in the rat after subcutaneous
application from the 5th to 7th day of pregnancy (dose
0.2 ml/animal/day in benzylbenzoate/castor oil
N number of inseminated females
N* number of females not pregnant
^++ graphic determination
Inhibition of early gravidity in the rat:
Female rats are mated in the pro-oestrus. If semen is found in the vaginal smear on the next day, this day is counted as day 1 (=d1) of the gravidity. Treatment with the test substance or vehicle is applied on d5-d7, autopsy is carried out on d9. The substances are injected subcutaneously in 0.2 ml of vehicle (benzyl benzoate/castor oil 1+4).

[2] = target: T1, glucocorticoid receptor (Rattus norvegicus, UniProt P06536); experiment: Receptor bonding affinity: competitive bonding of 3H-dexamethasone and test compound to glucocorticoid receptor in thymus cytosol of the adrenalectomized rat; type: binding; conditions: dexamethasone = 100%; tracer 3H-dexamethasone 20 nM; 18 hours at 0-4 °C; quotient of IC50 values x 100%
T1 construct: receptors in the cytosol from animal target organs; from tissue; host or cells: thymus cytosol of adrenalectomized rat
T1 sequence (P06536 1-795): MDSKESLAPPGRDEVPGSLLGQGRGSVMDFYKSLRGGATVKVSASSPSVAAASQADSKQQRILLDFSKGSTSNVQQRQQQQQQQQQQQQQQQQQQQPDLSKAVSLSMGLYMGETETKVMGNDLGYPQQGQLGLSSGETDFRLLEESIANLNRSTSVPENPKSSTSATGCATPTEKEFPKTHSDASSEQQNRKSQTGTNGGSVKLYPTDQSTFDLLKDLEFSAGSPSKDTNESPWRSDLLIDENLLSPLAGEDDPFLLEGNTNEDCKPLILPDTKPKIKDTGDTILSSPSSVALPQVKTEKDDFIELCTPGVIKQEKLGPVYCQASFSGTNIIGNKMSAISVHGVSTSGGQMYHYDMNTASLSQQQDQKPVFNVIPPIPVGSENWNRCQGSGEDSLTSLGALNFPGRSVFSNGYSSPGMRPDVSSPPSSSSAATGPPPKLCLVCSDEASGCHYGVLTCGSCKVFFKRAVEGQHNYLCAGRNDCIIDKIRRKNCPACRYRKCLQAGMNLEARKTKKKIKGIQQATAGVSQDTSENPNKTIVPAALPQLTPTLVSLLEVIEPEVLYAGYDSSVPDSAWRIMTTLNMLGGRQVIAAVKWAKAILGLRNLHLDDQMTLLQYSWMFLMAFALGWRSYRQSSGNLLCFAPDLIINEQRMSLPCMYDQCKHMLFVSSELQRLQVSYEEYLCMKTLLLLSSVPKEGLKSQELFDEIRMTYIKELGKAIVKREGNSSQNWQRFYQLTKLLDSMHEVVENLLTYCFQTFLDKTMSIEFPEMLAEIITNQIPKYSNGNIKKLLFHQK
Protocol: Measurement of bonding affinity for receptors
Receptor bonding affinity was determined by competitive bonding of a specifically binding ^3 H labelled hormone (tracer) and the compound to be tested to receptors in the cytosol from animal target organs. It was tried to obtain receptor saturation and a balanced reaction. The following incubation conditions were selected:
Glucocorticoid receptor: thymus cytosol of the adrenalectomized rat, thymi kept at -30° C., buffer: TED. Tracer: ^3 H-dexamethasone, 20 nM; reference substance: dexamethasone.
After an incubation period of 18 hours at 0°-4° C., bonded and free steroid was separated by mixing in active carbon/dextrane (1%/0.1%), centrifuging off and measuring the bonded ^3 H activity in the supernatant.
The IC50 for the compound to be tested and for the reference substance were determined from measurements in series of concentrations.

| SMILES | complete gravidity inhibition (N*/N) ([1]; 0.1 mg/animal/day s.c.) | complete gravidity inhibition (%) ([1]; 0.1 mg/animal/day s.c.) | complete gravidity inhibition (N*/N) ([1]; 0.3 mg/animal/day s.c.) | complete gravidity inhibition (%) ([1]; 0.3 mg/animal/day s.c.) | complete gravidity inhibition (N*/N) ([1]; 1.0 mg/animal/day s.c.) | complete gravidity inhibition (%) ([1]; 1.0 mg/animal/day s.c.) | complete gravidity inhibition (N*/N) ([1]; 3.0 mg/animal/day s.c.) | complete gravidity inhibition (%) ([1]; 3.0 mg/animal/day s.c.) | ED 50 (complete gravidity inhibition) [1] [mg/animal/day] | Relative molar bonding affinity (RBA) for the glucocorticoid receptor [2] [%] | inhibition capability of nidation, in words ([1]; as compared to RU 486) |
| --- | --- | --- | --- | --- | --- | --- | --- | --- | --- | --- | --- |
| COC[C@]1(OC)CC[C@H]2[C@@H]3CCC4=CC(=O)CCC4=C3[C@@H](c3ccc(C=NOC(C)=O)cc3)C[C@@]21C [Example 1, 11β-[4-(acetyloximinomethyl)phenyl]-17β-methoxy-17α-methoxymethyl-estra-4,9-diene-3-on] | 0/6 | 0 | 1/5 | 20 | 7/10 | 70 | 5/5 | 100 | 0.6 | 73 |  |
| CCOC(=O)ON=Cc1ccc([C@H]2C[C@@]3(C)[C@@H](CC[C@]3(COC)OC)[C@@H]3CCC4=CC(=O)CCC4=C32)cc1 [Example 2, 11β-[4-(ethoxycarbonyloximinomethyl)phenyl]-17β-methoxy-17α-methoxymethyl-estra-4,9-diene-3-on] |  |  | 0/5 | 0 | 9/10 | 90 |  |  | 0.6 | 66 | superior inhibition capability of nidation |
| CC#C[C@]1(O)CC[C@H]2[C@@H]3CCC4=CC(=O)CCC4=C3[C@@H](c3ccc(N(C)C)cc3)C[C@@]21C [RU 486, reference compound] |  |  | 0/5 | 0 | 2/5 | 40 | 5/5 | 100 | 1.1 | 685 |  |
| CN(C)c1ccc([C@H]2C[C@]3(C)[C@@H](CC[C@]3(O)CCCO)[C@@H]3CCC4=CC(=O)CCC4=C32)cc1 [ZK 98299, reference compound] |  |  |  |  |  |  |  |  |  | 39 |  |
